In article PMC10451032 (ACS Central Science, 2023):

Tests used:
[1] = test system: Mpro Q192T, Q192S, Q192L, Q192A, Q192I, Q192P, Q192H, Q192V, Q192W, Q192C, and Q192F; assay type: biochemical, SARS-CoV-2
[2] = biological target: Mpro S144A; conditions: cited from earlier work
[3] = test system: eight Q189 mutants; assay type: biochemical, SARS-CoV-2
[4] = test system: rNsp5^H172Q recombinant SARS-CoV-2; assay type: cell-based
[5] = test system: rNsp5^H172Y recombinant SARS-CoV-2; assay type: cell-based
[6] = biological target: Mpro G15S, T21I, L89F, K90R, P108S, P132H, and L205V; conditions: cited from earlier work
[7] = test system: rNsp5^S144A recombinant SARS-CoV-2; assay type: cell-based
[8] = test system: Mpro H172Y; conditions: cited from earlier work
[9] = test system: rNsp5^E166Q recombinant SARS-CoV-2; assay type: cell-based
[10] = test system: rNsp5^S144M recombinant SARS-CoV-2; assay type: cell-based
[11] = test system: Mpro M49I, M49T, M49L, and M49V; assay type: biochemical, SARS-CoV-2
[12] = test system: top nine high-frequency mutants at residue N142; assay type: biochemical, SARS-CoV-2

Row | Structure (SMILES) | Cross-resistance (fold vs WT) [1] [fold] | Ki increase [2] [fold] | change in IC50 vs WT [3] [fold] | EC50 [4] [nM] | EC50 fold increase compared to rNsp5^WT [4] [fold] | EC50 [5] [nM] | IC50 or Ki value shifts [6] [fold] | EC50 [7] [nM] | EC50 fold increase compared to rNsp5^WT [7] [fold] | increase in Ki [8] [fold] | EC50 [9] [nM] | EC50 fold increase compared to rNsp5^WT [9] [fold] | EC50 [10] [nM] | EC50 fold increase compared to rNsp5^WT [10] [fold] | change in IC50 vs WT [11] [fold] | change in IC50 vs WT [12] [fold]
1 | CC(C)C[C@H](NC(=O)OCc1ccccc1)C(=O)N[C@@H](CC1CCNC1=O)C(O)S(=O)(=O)[O-].[Na+] (stereo partly shown) [GC-376] | > 7.7 | – | – | – | – | – | – | – | – | – | – | – | – | – | – | –
2 | CC(C)(C)[C@H](NC(=O)C(F)(F)F)C(=O)N1C[C@H]2[C@@H]([C@H]1C(=O)N[C@H](C#N)C[C@@H]1CCNC1=O)C2(C)C [nirmatrelvir] | – | 91.9 | < 3.1 | 133 ± 2.86 | 5.2 | 378 ± 10.2 | < 2 | 127 | 5.0 | 233 | 69.7 | 2.7 | 87.1 ± 3.06 | 3.4 | < 3 | < 3.5
